Data on 20 molecules can be found in US12180226B2, “Spirotricycle RIPK1 inhibitors and methods of uses thereof” (Merck Sharp & Dohme LLC, priority 2021, dated 2024).

Usually EC50 stands for the midpoint of the concentration-response curve.

Counter-ions that a name gives are not always drawn. Bounds are passed on as bounds.

The target in the test is RIPK1 (recombinant GST-RIPK1 kinase domain, residues 1-327) (Homo sapiens (Human), UniProt Q13546). The test is described as follows: RIPK1-ADP-Glo Enzymatic Assay. The settings on record: ADP-Glo; 25 nM GST-RIPK1, 300 μM ATP; assay lower limit ~25 nM; read-out: RIPK1 V0 Ec50. In kind it is biochemical. An outline of the steps: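 Compounds titrated 10-pt 1:3 from 100000 nM top (1% DMSO); 30 min preinc w/ 25 nM Sf21-expressed enzyme, RT; start w/ ATP (300 μM final) + dephos-MBP (3 μM); 150 min; ADP-Glo lumi; 4-param fit → EC50.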
Sequence of RIPK1 (recombinant GST-RIPK1 kinase domain, residues 1-327) (Q13546 1-327): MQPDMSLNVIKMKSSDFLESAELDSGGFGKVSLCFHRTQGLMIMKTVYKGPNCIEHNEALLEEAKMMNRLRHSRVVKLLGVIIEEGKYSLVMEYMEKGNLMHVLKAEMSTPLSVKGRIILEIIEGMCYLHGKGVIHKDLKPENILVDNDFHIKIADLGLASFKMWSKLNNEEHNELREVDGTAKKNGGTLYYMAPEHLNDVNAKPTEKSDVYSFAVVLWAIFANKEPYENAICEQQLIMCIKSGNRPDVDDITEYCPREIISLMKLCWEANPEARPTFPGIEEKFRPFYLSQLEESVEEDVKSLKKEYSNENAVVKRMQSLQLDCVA
(ADP-Glo turns the ADP formed in a reaction into a luminescent signal.)

Regarding `O=C1N2[C@@H](CC[C@H]2c2cc(F)cc(F)c2)OC12CCN(c1ccc(Cl)c3ncnn13)CC2` [Example 15.4, (5′S,7a′R)-1-(8-chloro-[1,2,4]triazolo[1,5-a]pyridin-5-yl)-5′-(3,5-difluorophenyl)tetrahydro-3′H-spiro[piperidine-4,2′-pyrrolo[2,1-b]oxazol]-3′-one, TFA salt], the EC50 was less than 25 nM.
Take `O=C(C1CCCCC1)N1CCC2(CC1)O[C@@H]1CC[C@@H](c3cc(F)cc(F)c3)N1C2=O` [Example 5.7, (5′S,7a′R)-1-(cyclohexane-carbonyl)-5′-(3,5-difluoro-phenyl)tetrahydro-3′H-spiro[piperidine-4,2′-pyrrolo[2,1-b][1,3]oxazol]-3′-one]: the EC50 is 236 nM.
For `N#Cc1ccc(N2CCC3(CC2)O[C@@H]2CC[C@@H](c4ccccc4)N2C3=O)c2ccnn12` [Example 13.19, 4-((5′S,7a′R)-3′-oxo-5′ phenyltetrahydro-3′H-spiro[piperidine-4,2′-pyrrolo[2,1-b]oxazol]-1-yl)pyrazolo[1,5-a]pyridine-7-carbonitrile, TFA salt], the 50% effective concentration (EC50) was less than 25 nM.
On to `O=C1N2[C@@H](CC[C@H]2c2ccccc2)OC12CCN(c1nc3cnccc3o1)CC2` [Example 4.159, (5′S,7a′R)-1-([1,3]oxazolo[4,5-c]pyridin-2-yl)-5′-phenyltetrahydro-3′H-spiro[piperidine-4,2′-pyrrolo[2,1-b] [1,3]oxazol]-3′-one], for which the EC50 was found to be 62.6 nM.
As for `COc1ccnc(N2CCC3(CC2)O[C@@H]2CC[C@@H](c4ccccc4)N2C3=O)c1` [Example 11.30, (5′S,7a′R)-1-(4-methoxypyridin-2-yl)-5′-phenyltetrahydro-3′H-spiro[piperidine-4,2′-pyrrolo[2,1-b][1,3]oxazol]-3′-one], the EC50 came to 191 nM.
For the molecule `CC(=O)c1cnc(N2CCC3(CC2)O[C@@H]2CC[C@@H](c4ccccc4)N2C3=O)cc1Cl` [Example 4.186, (5′S,7a′R)-1-(5-acetyl-4-chloropyridin-2-yl)-5′-phenyltetrahydro-3′H-spiro[piperidine-4,2′-pyrrolo[2,1-b] [1,3]oxazol]-3′-one], the EC50 was less than 25 nM.
In the case of `O=C1N2[C@@H](CC[C@H]2c2cc(F)cc(F)c2)OC12CCN(c1ccnc3c(F)cnn13)CC2` [Example 3.1, (5′S,7a′R)-5′-(3,5-difluorophenyl)-1-(3-fluoropyrazolo[1,5-a]pyrimidin-7-yl)tetrahydro-3′H-spiro[piperidine-4,2′-pyrrolo[2,1-b]oxazol]-3′-one], the EC50 is less than 25 nM.
Then `CC1C[C@@]2(CCN1C(=O)c1ccccc1)O[C@@H]1CC[C@@H](c3cccc(F)c3)N1C2=O` (stereo partly drawn) [Example 6.160, (4R,5′S,7a′R)-1-(benzenecarbonyl)-5′-(3-fluorophenyl)-2-methyltetrahydro-3′H-spiro[piperidine-4,2′-pyrrolo[2,1-b] [1,3]oxazol]-3′-one], with less than 25 nM; and `N#Cc1cc(F)cc(C(=O)N2CCC3(CC2)O[C@@H]2CC[C@@H](c4cc(F)cc(F)c4)N2C3=O)c1` [Example 5.15, 3-((5′S,7a′R)-5′-(3,5-difluorophenyl)-3′-oxo-tetrahydro-3′H-spiro [piperidine-4,2′-pyrrolo-[2,1-b]oxazole]-1-carbon-yl)-5-fluorobenzonitrile], with 96.8 nM.
Regarding `CCOC(=O)c1nc(N2CCC3(CC2)O[C@@H]2CC[C@@H](c4cc(F)cc(F)c4)N2C3=O)ncc1F` [Example 4.205, ethyl 2-[(5′S,7a′R)-5′-(3,5-difluorophenyl)-3′-oxotetrahydro-1H,3′H-spiro[piperidine-4,2′-pyrrolo[2,1-b] [1,3]oxazol]-1-yl]-5-fluoropyrimidine-4-carboxylate], the EC50 stood at 63.3 nM.
Take `O=C1N2[C@@H](CC[C@H]2c2ccccc2F)OC12CN(CCc1ccccc1)C2` [Example 22.8, (5′S,7a′R)-5′-(2-fluorophenyl)-1-(2-phenylethyl)tetrahydro-3′H-spiro[azetidine-3,2′-pyrrolo[2,1-b][1,3]oxazol]-3′-one]: the EC50 is 348 nM.
Consider `O=C1N2[C@H](OC13CCN(c1ccnc4ccnn14)CC3)[C@@H](O)C[C@H]2c1ccccc1` [Example 4.251, (5′S,7′S,7a′R)-7′-hydroxy-5′-phenyl-1-(pyrazolo [1,5-a]pyrimidin-7-yl)tetrahydro-3′H-spiro[piperidine-4,2′-pyrrolo[2,1-b] [1,3]oxazol]-3′-one], for which the EC50 is less than 25 nM.
As to `COC(=O)c1cnc(N2CCC3(CC2)O[C@@H]2CC[C@@H](c4ccccc4)N2C3=O)cc1Cl` [Example 4.211, methyl 4-chloro-6-[(5′S,7a′R)-3′-oxo-5′-phenyltetrahydro-1H,3′H-spiro[piperidine-4,2′-pyrrolo[2,1-b] [1,3]oxazol]-1-yl]pyridine-3-carboxylate], the EC50 is less than 25 nM.
Then `N#Cc1ccc(N2CCC3(CC2)O[C@@H]2CC[C@@H](c4cc(F)cc(F)c4)N2C3=O)cc1F` [Example 4.18, 4-[(5′S,7a′R)-5′-(3,5-difluorophenyl)-3′-oxotetrahydro-1H,3′H-spiro[piperidine-4,2′-pyrrolo[2,1-b] [1,3]oxazol]-1-yl]-2-fluorobenzonitrile], with less than 25 nM; and `O=C1N2[C@@H](CC[C@H]2c2ccccc2)OC12CCN(c1ncc(C3CC3)cn1)CC2` [Example 11.13, (5′S,7a′R)-1-(5-cyclopropylpyrimidin-2-yl)-5′-phenyltetrahydro-3′H-spiro[piperidine-4,2′-pyrrolo[2,1-b][1,3]oxazol]-3′-one], with 266 nM.
On to `O=C1N2[C@@H](CC[C@H]2c2ccccc2)OC12CN(c1ccnc3ccnn13)C2` [Example 4.136, (5′S,7a′R)-5′-phenyl-1-(pyrazolo[1,5-a]pyrimidin-7-yl)tetrahydro-3′H-spiro[azetidine-3,2′-pyrrolo[2,1-b] [1,3]oxazol]-3′-one], for which the EC50 is less than 25 nM.
As for `Cc1nc(N2CCC3(CC2)O[C@@H]2CC[C@@H](c4ccccc4)N2C3=O)ccc1C#N` [Example 4.74, 2-methyl-6-[(5′S,7a′R)-3′-oxo-5′-phenyltetrahydro-1H,3′H-spiro[piperidine-4,2′-pyrrolo[2,1-b] [1,3]oxazol]-1-yl]pyridine-3-carbonitrile], the EC50 is less than 25 nM.
In the case of `CCc1cnc(N2CCC3(CC2)O[C@@H]2CC[C@@H](c4cc(F)cc(F)c4)N2C3=O)nc1` [Example 4.60, (5′S,7a′R)-5′-(3,5-difluorophenyl)-1-(5-ethylpyrimidin-2-yl)tetrahydro-3′H-spiro[piperidine-4,2′-pyrrolo[2,1-b] [1,3]oxazol]-3′-one], the EC50 stood at 452 nM.
Then `N#Cc1cccc(N2CCC3(CC2)O[C@@H]2CC[C@@H](c4ccccc4)N2C3=O)n1` [Example 4.29, 6-[(5′S,7a′R)-3′-oxo-5′-phenyltetrahydro-1H,3′H-spiro[piperidine-4,2′-pyrrolo[2,1-b] [1,3]oxazol]-1-yl]pyridine-2-carbonitrile], with less than 25 nM; and `O=C1N2[C@@H](CC[C@H]2c2ccccc2F)OC12CCN(c1ncnc3ccnn13)CC2` [Example 4.252, (5′S,7a′R)-5′-(2-fluorophenyl)-1-(pyrazolo[1,5-a] [1,3,5]triazin-4-yl)tetrahydro-3′H-spiro[piperidine-4,2′-pyrrolo[2,1-b] [1,3]oxazol]-3′-one], with less than 25 nM.
